Source: PubChem BioAssay (NCI)
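Method: 48-hour compound exposure of cells in 96-well plates, five concentrations, linear interpolation of endpoints. TGI denotes the concentration required for complete inhibition of growth.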

Columns and labels:
Assay in all cases: growth of human tumour cells (NCI), 48 h
[1] = test system: 786-0 renal
[2] = test system: A498 renal
[3] = test system: A549 NSCLC
[4] = test system: ACHN renal
[5] = test system: BT-549 breast
[6] = test system: CAKI-1 renal
[7] = test system: CCRF-CEM leukemia
[8] = test system: COLO 205 colon
[9] = test system: DU-145 prostate
[10] = test system: EKVX NSCLC
[11] = test system: HCC-2998 colon
[12] = test system: HCT-116 colon
[13] = test system: HCT-15 colon
[14] = test system: HL-60(TB) leukemia
[15] = test system: HOP-62 NSCLC
[16] = test system: HOP-92 NSCLC
[17] = test system: HS 578T breast
[18] = test system: HT29 colon
[19] = test system: IGROV1 ovarian
[20] = test system: K-562 leukemia
[21] = test system: KM12 colon
[22] = test system: LOX IMVI melanoma
[23] = test system: M14 melanoma
[24] = test system: MALME-3M melanoma
[25] = test system: MCF7 breast
[26] = test system: MDA-MB-231 breast
[27] = test system: MDA-MB-435
[28] = test system: MDA-N
[29] = test system: MOLT-4 leukemia
[30] = test system: NCI-H226 lung
[31] = test system: NCI-H23 lung
[32] = test system: NCI-H460 lung
[33] = test system: NCI-H522 lung
[34] = test system: NCI/ADR-RES ovarian
[35] = test system: OVCAR-3 ovarian
[36] = test system: OVCAR-4 ovarian
[37] = test system: OVCAR-5 ovarian
[38] = test system: OVCAR-8 ovarian
[39] = test system: PC-3 prostate
[40] = test system: RPMI-8226 leukemia
[41] = test system: RXF 393 renal
[42] = test system: SF-268 CNS
[43] = test system: SF-295 CNS
[44] = test system: SF-539 CNS
[45] = test system: SK-MEL-2 melanoma
[46] = test system: SK-MEL-28 melanoma
[47] = test system: SK-MEL-5 melanoma
[48] = test system: SK-OV-3 ovarian
[49] = test system: SN12C renal
[50] = test system: SNB-19 CNS
[51] = test system: SNB-75 CNS
[52] = test system: SW-620 colon
[53] = test system: T-47D breast
[54] = test system: TK-10 renal
[55] = test system: U251 CNS
[56] = test system: UACC-257 melanoma
[57] = test system: UACC-62 melanoma
[58] = test system: UO-31 renal
[59] = test system: SR leukemia

Q: What does the source list for `NC1=CC(=O)c2c(O)ccc(O)c2C1=O`?
A: TGI [1]: 21.8 µM; TGI [2]: 47.5 µM; TGI [3]: 49.6 µM; TGI [4]: 34.2 µM; TGI [5]: 30.9 µM; TGI [6]: 66.8 µM; TGI [7]: 11.4 µM; TGI [8]: 20.9 µM; TGI [9]: 32.1 µM; TGI [10]: 36.2 µM; TGI [11]: 24.2 µM; TGI [12]: 22.3 µM; TGI [13]: > 56.1 µM; TGI [14]: 6.83 µM; TGI [15]: 64.9 µM; TGI [16]: 38.2 µM; TGI [17]: 68.3 µM; TGI [18]: 19.8 µM; TGI [19]: 29.5 µM; TGI [20]: > 50.5 µM; TGI [21]: > 78.7 µM; TGI [22]: 33.1 µM; TGI [23]: 22.3 µM; TGI [24]: 7.08 µM; TGI [25]: 18.6 µM; TGI [26]: 38.5 µM; TGI [27]: 31.6 µM; TGI [28]: 13.1 µM; TGI [29]: > 34.9 µM; TGI [30]: > 100 µM; TGI [31]: 27.9 µM; TGI [32]: 25.2 µM; TGI [33]: 18 µM; TGI [34]: 68.2 µM; TGI [35]: 8.45 µM; TGI [36]: 23.1 µM; TGI [37]: 35.3 µM; TGI [38]: 33 µM; TGI [39]: > 90.6 µM; TGI [40]: 44.9 µM; TGI [41]: 22.1 µM; TGI [42]: > 70.1 µM; TGI [43]: 40.9 µM; TGI [44]: 36 µM; TGI [45]: 32.6 µM; TGI [46]: 38 µM; TGI [47]: 20.3 µM; TGI [48]: > 94.5 µM; TGI [49]: 31.5 µM; TGI [50]: > 65.9 µM; TGI [51]: 83.3 µM; TGI [52]: 15.2 µM; TGI [53]: 35.7 µM; TGI [54]: > 84.8 µM; TGI [55]: 33.9 µM; TGI [56]: 30.2 µM; TGI [57]: 26.5 µM; TGI [58]: 15.7 µM

Q: Which TGI [1] does the source give for `O=c1oc2ccc3ccccc3c2cc1-c1cn2ccsc2n1` here?
A: 32.7 µM

Q: And the TGI [3]?
A: > 100 µM

Q: What about the TGI [4] of the same molecule?
A: 32.1 µM

Q: What about the TGI [5] of the same molecule?
A: 32.6 µM

Q: And the TGI [6]?
A: 59 µM

Q: And the TGI [7]?
A: 51.6 µM

Q: What about the TGI [8] of the same molecule?
A: 33.3 µM

Q: And the TGI [9]?
A: 47.3 µM

Q: And the TGI [10]?
A: 54.5 µM

Q: What about the TGI [11] of the same molecule?
A: 67.9 µM

Q: What about the TGI [12] of the same molecule?
A: 30.9 µM

Q: What about the TGI [13] of the same molecule?
A: 35.9 µM

Q: And the TGI [14]?
A: 51.7 µM

Q: What about the TGI [15] of the same molecule?
A: > 100 µM

Q: What about the TGI [16] of the same molecule?
A: 30 µM

Q: And the TGI [17]?
A: > 100 µM

Q: What about the TGI [18] of the same molecule?
A: 37.8 µM

Q: And the TGI [19]?
A: 23.2 µM

Q: What about the TGI [20] of the same molecule?
A: 82.4 µM

Q: And the TGI [21]?
A: 66.2 µM

Q: What about the TGI [22] of the same molecule?
A: 31.7 µM

Q: And the TGI [23]?
A: 60.5 µM

Q: And the TGI [24]?
A: 41.1 µM

Q: What about the TGI [25] of the same molecule?
A: 19 µM

Q: What about the TGI [26] of the same molecule?
A: 57.4 µM

Q: And the TGI [27]?
A: 46 µM

Q: And the TGI [28]?
A: 46.3 µM

Q: And the TGI [29]?
A: 14.9 µM

Q: What about the TGI [31] of the same molecule?
A: 92 µM

Q: And the TGI [32]?
A: > 100 µM

Q: And the TGI [33]?
A: 36.8 µM

Q: And the TGI [34]?
A: 96.2 µM

Q: What about the TGI [35] of the same molecule?
A: 43.8 µM

Q: What about the TGI [36] of the same molecule?
A: 40.7 µM

Q: And the TGI [37]?
A: 66.6 µM

Q: And the TGI [38]?
A: 41.2 µM

Q: What about the TGI [39] of the same molecule?
A: 96.4 µM

Q: What about the TGI [40] of the same molecule?
A: 46.2 µM

Q: And the TGI [41]?
A: 37.4 µM

Q: What about the TGI [42] of the same molecule?
A: 56.3 µM

Q: What about the TGI [43] of the same molecule?
A: > 100 µM

Q: What about the TGI [44] of the same molecule?
A: 51.2 µM

Q: And the TGI [45]?
A: > 100 µM

Q: What about the TGI [46] of the same molecule?
A: 57.3 µM

Q: And the TGI [47]?
A: 56.5 µM

Q: What about the TGI [48] of the same molecule?
A: > 100 µM

Q: And the TGI [49]?
A: 83.8 µM

Q: And the TGI [50]?
A: > 100 µM

Q: And the TGI [51]?
A: > 100 µM

Q: What about the TGI [59] of the same molecule?
A: 46.9 µM

Q: And the TGI [52]?
A: 46.8 µM

Q: What about the TGI [53] of the same molecule?
A: 57.6 µM

Q: And the TGI [54]?
A: 33.9 µM

Q: And the TGI [55]?
A: > 100 µM

Q: What about the TGI [56] of the same molecule?
A: 66.1 µM

Q: What about the TGI [57] of the same molecule?
A: 34.2 µM

Q: And the TGI [58]?
A: 31.7 µM
